Data from patent publication US20160312240A1, “MODIFIED PYR/PYL RECEPTORS ACTIVATED BY ORTHOGONAL LIGANDS” (The Regents of the University of California, priority 2010, published 2016).

Key:
[1] = biological target: T1, 6×-His-PYR1(27-18) (S47P, K59R, Y120H) (Arabidopsis thaliana, UniProt O49686, K59R/S47P/Y120H); assay: In vitro PP2C phosphatase activity assay (receptor activation = inhibition of PP2C); assay type: biochemical; details: mutant 27-18; increasing concentrations; 10 mM Mn++ buffer; FIG. 1
T1 construct: 6x-His (N); made in house
Method: FIGS. 1A-1B. PYR1 mutant 27-18 confers responsiveness to fenhexamid but not ABA. Representative PYR1 mutant 27-18 (comprising S47P, K59R, and Y120H substitution mutations) was tested for responsiveness to abscisic acid (“ABA”) (FIG. 1A) and fenhexamid (FIG. 1B) at increasing concentrations as compared to a wild-type PYR1 control using an in vitro PP2C phosphatase activity assay.
To probe orthogonal receptor-ligand interactions further, recombinant protein was expressed for the fenhexamid-responsive mutant 27-18, which has three mutations in PYR1. 6×-His-PYR1(27-18) protein was expressed and purified alongside wild-type PYR1 protein. Both proteins were tested for their ability to inhibit PP2C activity in response to increasing concentrations of either ABA or fenhexamid using phosphatase activity assays, in which activation of the PYR/PYL receptor is monitored by inhibition of PP2C activity (FIG. 1).

[2] = biological target: T2, PYL2 K64R,Y124H,M164I,V67I,V114I (Arabidopsis thaliana, UniProt O80992, K64R/M164I/V114I/V67I/Y124H); assay: Yeast two-hybrid assay, strain Y190 pAD-HAB1, X-gal staining; assay type: cell-based; details: FIG. 3A
T2 construct: expressed in transfected cells; host or cells: Saccharomyces cerevisiae Y190 pAD-HAB1
Method: (§1) FIGS. 3A-3B. […] FIG. 3A. […] In addition, pocket residue mutations at V114I and/or V67I were introduced. The mutants (listed on left side of panel) were constructed in pBD-PYL2 and transformed into Y190 pAD-HAB1 yeast cells. The transformants were then grown on increasing concentrations of fenhexamid and scored for responsiveness using X-gal staining, performed as described in Park et al., 2009. […] FIG. 3B. In vitro characterization of PYL2 K64R, Y124H, M164I, V67I, V114I mutant. Recombinant wild-type and mutant PYL2 proteins were produced as described previously and used in PP2C assays, as described previously (Park et al., 2009), with the exception that a 2:1 ratio of receptor for phosphatase was used.
(§2) PYR1 is a member of the PYR/PYL receptor protein family, which in Arabidopsis contains 14 members. […] Given the conserved nature of these residues, we speculated that fenhexamid sensitivity could be engineered into other receptor family members by mutating homologous residues in other PYR/PYL receptors. To test this, we introduced the homologous mutations in PYL2 (K64R, corresponding to K59R in PYR1; Y124H, corresponding to Y120H in PYR1; and M164I, corresponding to M158I in PYR1), creating the mutant PYL2^K64R,Y124H,M164I. […]

[3] = biological target: T3, PYL2 K64R,Y124H,M164I (Arabidopsis thaliana, UniProt O80992, K64R/M164I/Y124H); assay: as above; assay type: cell-based; details: FIG. 3A
T3 construct: expressed in transfected cells; host or cells: Saccharomyces cerevisiae Y190 pAD-HAB1
Method: as §1, §2

[4] = test system: control lines (Columbia wild-type; wild-type PYL2 overexpression line); assay: Seedling germination/growth on fenhexamid; assay type: in vivo, Arabidopsis; details: 100 μM fenhexamid, germinated in the dark, scored two days post-imbibition, FIG. 4
From the text: (§3) FIG. 4. Characterization of seedling responses to fenhexamid in 35S::GFP-PYL2 K64R, Y124H, M164I, V67I, V114I transgenic plants. […] Shown are segregating GFP-expressing T2 seedlings from primary transgenic plants (T1). Columbia is the wild-type background and is non-transgenic. Two independent PYL2 K64R, Y124H, M164I, V67I, V114I (“PYL2 MUT”) transgenic lines were characterized in addition to a wild-type PYL2 overexpression line. Seeds from respective lines were germinated in the dark on media containing 100 μM fenhexamid and scored two days post-imbibition.
(§4) To investigate if the fenhexamid response observed in yeast and in vitro experiments would function in plants, transgenic 35S::GFP-PYL2 and 35S::GFP-PYL2^K64R,Y124H,M164I,V67I,V114I plants were constructed using standard molecular cloning methods into a modified version of pEGAD (Cutler et al., Proc Natl Acad Sci U.S.A. 97:3718-3723 (2000)) in which a 6×-histidine tag was added onto the N-terminus of GFP. Transgenic plants were made using the floral-dip method and primary transgenics (T1) identified by screening seedlings by epi-fluorescence using a Leica GFP dissecting microscope. The GFP^+ transgenic plants were grown to maturity and T2 seed collected for further analyses. […]

[5] = test system: 35S::GFP-PYL2 K64R,Y124H,M164I,V67I,V114I transgenic plants; assay: Seedling germination/growth on fenhexamid; assay type: in vivo, Arabidopsis; details: 100 μM fenhexamid; T2 seedlings expressing mutant PYL2; FIG. 4
From the text: as §3, §4

T2 sequence (Q9CAJ0 23-511): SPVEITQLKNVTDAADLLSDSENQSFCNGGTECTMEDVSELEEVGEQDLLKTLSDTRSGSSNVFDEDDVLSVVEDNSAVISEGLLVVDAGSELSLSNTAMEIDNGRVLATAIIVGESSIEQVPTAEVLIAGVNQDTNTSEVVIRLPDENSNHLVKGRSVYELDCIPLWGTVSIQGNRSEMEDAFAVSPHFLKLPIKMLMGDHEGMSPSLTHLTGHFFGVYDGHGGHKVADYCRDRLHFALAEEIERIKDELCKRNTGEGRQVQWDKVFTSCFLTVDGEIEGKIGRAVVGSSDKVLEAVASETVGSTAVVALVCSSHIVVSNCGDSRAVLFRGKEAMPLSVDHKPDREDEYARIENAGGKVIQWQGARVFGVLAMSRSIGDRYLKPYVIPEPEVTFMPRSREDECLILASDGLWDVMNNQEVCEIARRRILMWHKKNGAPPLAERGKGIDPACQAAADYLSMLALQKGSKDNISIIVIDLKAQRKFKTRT
T2 sequence (O80992 whole entry K64R/V67I/V114I/Y124H/M164I): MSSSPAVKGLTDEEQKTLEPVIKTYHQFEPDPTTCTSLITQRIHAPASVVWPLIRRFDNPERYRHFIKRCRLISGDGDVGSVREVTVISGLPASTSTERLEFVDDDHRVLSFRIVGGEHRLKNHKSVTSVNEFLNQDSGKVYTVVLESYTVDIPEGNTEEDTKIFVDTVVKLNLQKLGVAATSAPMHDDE
T1 sequence (O49686 whole entry S47P/K59R/Y120H): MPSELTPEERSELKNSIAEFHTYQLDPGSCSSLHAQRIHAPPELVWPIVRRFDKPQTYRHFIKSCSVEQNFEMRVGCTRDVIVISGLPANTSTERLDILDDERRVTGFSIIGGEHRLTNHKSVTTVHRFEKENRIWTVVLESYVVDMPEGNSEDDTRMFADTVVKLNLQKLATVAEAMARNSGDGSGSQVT
T1 sequence (Q9CAJ0 23-511, stated change not applied, further chain): as the sequence (Q9CAJ0 23-511) above
T3 sequence (O80992 whole entry K64R/Y124H/M164I): as the sequence (O80992 whole entry K64R/V67I/V114I/Y124H/M164I) above, with I67V, I114V counted along it

## CC1(C(=O)Nc2ccc(O)c(Cl)c2Cl)CCCCC1 [fenhexamid]
[1]
  Receptor activation (inhibition of PP2C activity): activated
[2]
  Response to fenhexamid in yeast assays: respond
[3]
  fenhexamid responsiveness (yeast two-hybrid): does not show fenhexamid responsiveness
[4]
  Post-germination arrest on fenhexamid: do not
[5]
  Seedling growth on fenhexamid: strong growth inhibition
